# Laboratory results published in patent US20240336596A1, “PARP7 INHIBITOR AND USE THEREOF” (NOVOSTAR PHARMACEUTICALS, LTD., priority 2022, published 2024).
# How the values were obtained:
# [1] = target: T1, recombinant human PARP7 protein (Homo sapiens, UniProt Q7Z3E1); assay: Inhibition of PARP7 biological enzyme activity (histone-coated plate, Biotin-NAD+, chemiluminescence); format: biochemical; conditions: recombinant human PARP7, Biotin-NAD+ substrate
# T1 construct: purchased Abcam ab271651
# T1 sequence (Q7Z3E1 1-657): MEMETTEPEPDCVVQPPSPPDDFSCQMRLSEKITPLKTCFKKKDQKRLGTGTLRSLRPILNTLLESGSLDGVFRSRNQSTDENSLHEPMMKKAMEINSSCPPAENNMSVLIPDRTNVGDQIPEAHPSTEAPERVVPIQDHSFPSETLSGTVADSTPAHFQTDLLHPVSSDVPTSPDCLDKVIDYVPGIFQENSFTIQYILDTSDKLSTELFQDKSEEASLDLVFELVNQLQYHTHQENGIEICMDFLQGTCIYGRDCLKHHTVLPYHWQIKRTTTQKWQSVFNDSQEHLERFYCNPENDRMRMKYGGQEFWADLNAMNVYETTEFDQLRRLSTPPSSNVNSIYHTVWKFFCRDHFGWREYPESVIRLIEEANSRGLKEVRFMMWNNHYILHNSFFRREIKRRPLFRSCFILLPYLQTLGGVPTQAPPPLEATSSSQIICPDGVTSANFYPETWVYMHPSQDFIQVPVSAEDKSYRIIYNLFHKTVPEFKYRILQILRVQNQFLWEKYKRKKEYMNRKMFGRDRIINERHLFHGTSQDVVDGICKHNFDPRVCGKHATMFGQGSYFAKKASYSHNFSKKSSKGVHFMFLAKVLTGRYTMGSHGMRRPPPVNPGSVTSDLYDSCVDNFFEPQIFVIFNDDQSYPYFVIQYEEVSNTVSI
# Procedure: The recombinant human PARP7 protein kit (Abcam, catalog number ab271651) was used for the assay. According to the kit instructions, 30 μL of histone coating solution (1.5 μg/mL) was first applied to the 384 well holes of the reaction plate and coated at 4° C. for 2 hours. Then, the histone coated solution was washed off, and 50 μL sealing buffer was added to each well, and the sealing buffer was washed off after incubation at 25° C. for 60 minutes. 1000 times the concentration of the compound was 10 configured and diluted from 1 mM to 0.05 μM, and the configured compound was transferred to 384-well plates with 25 nL per well using Echo. The final concentration of the compound in the reaction system was 1000 nM, 333.33 nM, 111.11 nM, 37.03 nM, 12.34 nM, 4.11 nM, 1.37 nM, 0.45 nM, 0.15 nM, 0.05 nM, which was used as the test hole. At the same time, 25 nL DMSO was added to the negative control well and the positive control well. The PARP7 enzyme solution with a concentration of 1.67 times was prepared, and the PARP7 enzyme solution was added to the test hole and the positive control hole with 15 μL each, while the negative control hole was added with 15 μL base Buffer, and incubated at 25° C. for 15 minutes. Then 10 μL 2.5 times Biotin-NAD+ substrate solution was added and incubated at 25° C. for 60 min. After the reaction solution was washed off, the 384-well reaction plates were treated with closed buffer solution diluted with streptavidin-HRP (1:500), each well was 30 μL, and incubated at 25° C. for 30 min. After the HRP buffer was washed off, 30 μL HRP chemiluminescent substrate mixture was added to each well, and the luminescence signal (RLU) of each well was detected by Envision. Calculation formula: Inhibition rate %=(average positive control-RLU compound)/(average positive control-average negative control))*100%. The dose-response curves of each compound were fitted by GraphPad Prism 8 to get IC50 values. IC50 values less than 0.01 μM are labeled as “+++”, IC50 values from 0.01 to 0.1 µM are labeled as “++”, and IC50 values greater than 0.1 to 10.0 μM are labeled as “+”.
# [2] = test system: NCI-H1373 cancer cells; assay: NCI-H1373 cancer cell growth inhibition (CellTiter-Glo, 144 hours); format: cell-based; conditions: Homo sapiens, 144 hours culture
# Procedure: Promega CellTiter-Glo cell activity assay kit (Item No.: Promege-G7573) was used to determine the cell activity. 90 μL NCI-H1373 cell suspension (ATCC, catalog No. CRL-5866, batch No. 58078716) was spread into the pores of the 96-well plate with 3500 cells per well. After 24 hours, the 10 μL prepared 10× compound working solution was added into the pores of the cell culture plate with a final concentration of 10 μM. 3.3333 μM, 1.1111 μM, 0.3704 μM, 0.1235 μM, 0.0412 μM, 0.0137 μM, 0.0046 μM, 0.0015 μM, 0.0005 μM, 10 μL DMSO was added to the solvent control, and the final concentration of DMSO was 0.2%. The 0-day plates were collected for analysis, and after 144 hours of culture, the growth condition of cells was detected according to the instructions of CellTiter-Glo cell activity assay kit. Add 50 μL of CellTiter-Glo working liquid into each hole of the cell culture plate, shake the plates in the dark for 2 minutes until cell lysis, and place at room temperature for 10 minutes to detect the luminous signal (RUL) of each cell hole on the 2104En Vision board reader.
# Calculation formula: Growth inhibition rate %=(1−(RLU compound−RLU Day0)/(RLU solvent control−RLU Day0))*100%. The dose-response curves of each compound were fitted by GraphPad Prism 8 to obtain IC50 values.
# For the matter, IC50 values less than 0.1 μM are labeled “+++”, values from 0.1 to 1 μM are labeled “++”, and values greater than 1 to 10 μM are labeled “+”.
SMILES,IC50 [1] [µM],IC50 [2] [µM]
"C[C@@H](/C=N/OCC(=O)N1CCN(c2ncc(C(F)(F)F)cn2)CC1)Nc1cn[nH]c(=O)c1C(F)(F)F [Example 5, (S,E)-2-((6-oxo-5-(trifluoromethyl)-1,6-dihydropyridazin-4-yl)amino) propanal O-(2-oxo-2-(4-(5-(trifluoromethyl)pyrimidin-2-yl)piperazin-1-yl)ethyl) oxime]",< 0.01,< 0.1
"CC[C@@H](/C=N/OCC(=O)N1CCN(c2ncc(C(F)(F)F)cn2)CC1)Nc1cn[nH]c(=O)c1C(F)(F)F [Example 6, (S,E)-2-((6-oxo-5-(trifluoromethyl)-1,6-dihydropyridazin-4-yl)amino)butanal O-(2-oxo-2-(4-(5-(trifluoromethyl)pyrimidin-2-yl)piperazin-1-yl)ethyl)oxime]",< 0.01,0.1 to 1
"C[C@@H](/C=N/OCC(=O)N1CCN(c2ncc(C#N)cn2)CC1)Nc1cn[nH]c(=O)c1C(F)(F)F [Example 7, (S,E)-2-(4-(2-(((2-((6-oxo-5-(trifluoromethyl)-1,6-dihydropyridazin-4-yl)amino)propylidene)amino)oxy)acetyl)piperazin-1-yl)pyrimidine-5-carbonitrile]",< 0.01,1 to 10
"C/C(=N\OCC(=O)N1CCN(c2ncc(C(F)(F)F)cn2)CC1)[C@H](C)Nc1cn[nH]c(=O)c1C(F)(F)F [Example 8, (S,E)-5-((3-((2-oxo-2-(4-(5-(trifluoromethyl)pyrimidin-2-yl)piperazin-1-yl)ethoxy)imino)butan-2-yl)amino)-4-(trifluoromethyl)pyridazin-3(2H)-one]",0.01 to 0.1,–
"O=C(CO/N=C1\CCC[C@@H]1Nc1cn[nH]c(=O)c1C(F)(F)F)N1CCN(c2ncc(C(F)(F)F)cn2)CC1 [Example 9, (S,E)-5-((2-((2-oxo-2-(4-(5-(trifluoromethyl)pyrimidin-2-yl)piperazin-1-yl)ethoxy)imino)cyclopentyl)amino)-4-(trifluoromethyl)pyridazin-3(2H)-one]",< 0.01,0.1 to 1
"O=C(CO/N=C/[C@@H](Nc1cn[nH]c(=O)c1C(F)(F)F)C1CC1)N1CCN(c2ncc(C(F)(F)F)cn2)CC1 [Example 10, (S,E)-2-cyclopropyl-2-((6-oxo-5-(trifluoromethyl)-1,6-dihydropyridazin-4-yl)amino)acetaldehyde O-(2-oxo-2-(4-(5-(trifluoromethyl)pyrimidin-2-yl)piperazin-1-yl)ethyl) oxime]",< 0.01,0.1 to 1
"C[C@@H](/C=N/OCC(=O)N1CCN(c2ccc(C#N)cn2)CC1)Nc1cn[nH]c(=O)c1C(F)(F)F [Example 11, (S,E)-6-(4-(2-(((2-((6-oxo-5-(trifluoromethyl)-1,6-dihydropyridazin-4-yl)amino)propylidene)amino)oxy)acetyl)piperazin-1-yl)nicotinonitrile]",< 0.01,1 to 10
"C[C@@H](/C=N/OCC(=O)N1CCN(c2ccc(C(F)(F)F)cn2)CC1)Nc1cn[nH]c(=O)c1C(F)(F)F [Example 12, (S,E)-2-((6-oxo-5-(trifluoromethyl)-1,6-dihydropyridazin-4-yl)amino)propanal O-(2-oxo-2-(4-(5-(trifluoromethyl)pyridin-2-yl)piperazin-1-yl)ethyl) oxime]",< 0.01,0.1 to 1
"C[C@@H]1CN(c2ccc(C#N)cn2)CCN1C(=O)CO/N=C/[C@H](C)Nc1cn[nH]c(=O)c1C(F)(F)F [Example 13, 6-((R)-3-methyl-4-(2-(((E)-((S)-2-((6-oxo-5-(trifluoromethyl)-1,6-dihydropyridazin-4-yl)amino)propylidene)amino)oxy)acetyl)piperazin-1-yl)nicotinonitrile]",< 0.01,1 to 10
"C[C@@H](/C=N/OCCC1CCN(c2ncc(C(F)(F)F)cn2)CC1)Nc1cn[nH]c(=O)c1C(F)(F)F [Example 14, (S,E)-2-((6-oxo-5-(trifluoromethyl)-1,6-dihydropyridazin-4-yl)amino)propanal O-(2-(1-(5-(trifluoromethyl)pyrimidin-2-yl)piperidin-4-yl)ethyl) oxime]",< 0.01,1 to 10
"C[C@@H](CO/N=C/C(=O)N1CCN(c2ncc(C(F)(F)F)cn2)CC1)Nc1cn[nH]c(=O)c1C(F)(F)F [Example 15, (S,E)-2-oxo-2-(4-(5-(trifluoromethyl)pyrimidin-2-yl)piperazin-1-yl)acetaldehyde O-(2-((6-oxo-5-(trifluoromethyl)-1,6-dihydropyridazin-4-yl)amino)propyl) oxime]",< 0.01,0.1 to 1
"C/C(=N\OC[C@H](C)Nc1cn[nH]c(=O)c1C(F)(F)F)C(=O)N1CCN(c2ncc(C(F)(F)F)cn2)CC1 [Example 16, (S,E)-5-((1-(((1-oxo-1-(4-(5-(trifluoromethyl)pyrimidin-2-yl)piperazin-1-yl)propan-2-ylidene)amino)oxy)propan-2-yl)amino)-4-(trifluoromethyl)pyridazin-3(2H)-one]",0.01 to 0.1,–
"CC(/C=N/OCC(=O)N1CCN(c2ncc(C(F)(F)F)cn2)CC1)c1cccc2c(=O)[nH]ncc12 (stereo not drawn) [Example 18, (E)-2-(1-oxo-1,2-dihydrophthalazin-5-yl)propanal O-(2-oxo-2-(4-(5-(trifluoromethyl)pyrimidin-2-yl)piperazin-1-yl)ethyl) oxime]",< 0.01,1 to 10
"CC(/C=N/OCC(=O)N1CCN(c2ccc(C(F)(F)F)cn2)CC1)c1cccc2c(=O)[nH]ncc12 (stereo not drawn) [Example 19, (E)-2-(1-oxo-1,2-dihydrophthalazin-5-yl)propanal O-(2-oxo-2-(4-(5-(trifluoromethyl)pyridin-2-yl)piperazin-1-yl)ethyl) oxime]",< 0.01,1 to 10
"C[C@@H](CONC(=O)C(F)C1=CCN(c2ncc(C(F)(F)F)cn2)CC1)Nc1cn[nH]c(=O)c1C(F)(F)F (stereo partly drawn) [Example 22, 2-fluoro-N—((S)-2-((6-oxo-5-(trifluoromethyl)-1,6-dihydropyridazin-4-yl)amino)propoxy)-2-(1-(5-(trifluoromethyl)pyrimidin-2-yl)-1,2,3,6-tetrahydropyridin-4-yl) acetamide]",< 0.01,< 0.1
"C[C@@H](CONC(=O)/C=C1\CCN(c2ncc(C(F)(F)F)cn2)CC1F)Nc1cn[nH]c(=O)c1C(F)(F)F (stereo partly drawn) [Example 23, (E)-2-(3-fluoro-1-(5-(trifluoromethyl)pyrimidin-2-yl)piperidin-4-ylidene)-N—((S)-2-((6-oxo-5-(trifluoromethyl)-1,6-dihydropyridazin-4-yl)amino)propoxy)acetamide]",< 0.01,0.1 to 1
